From ChEMBL document CHEMBL1128959, “Quinoline-substituted dihydroindoles as cysLT1 (LTD4 receptor) antagonists” (Bioorg Med Chem Lett, 1996)

Assays:
[1] = biological target: T1, Cysteinyl leukotriene receptor 1 (Cavia porcellus) (UniProt Q2NNR5); experiment: Compound was tested for its inhibitory activity against specific binding of [3H]LTD4 to guinea pig ileum.; type: tissue-based
T1 sequence (whole entry): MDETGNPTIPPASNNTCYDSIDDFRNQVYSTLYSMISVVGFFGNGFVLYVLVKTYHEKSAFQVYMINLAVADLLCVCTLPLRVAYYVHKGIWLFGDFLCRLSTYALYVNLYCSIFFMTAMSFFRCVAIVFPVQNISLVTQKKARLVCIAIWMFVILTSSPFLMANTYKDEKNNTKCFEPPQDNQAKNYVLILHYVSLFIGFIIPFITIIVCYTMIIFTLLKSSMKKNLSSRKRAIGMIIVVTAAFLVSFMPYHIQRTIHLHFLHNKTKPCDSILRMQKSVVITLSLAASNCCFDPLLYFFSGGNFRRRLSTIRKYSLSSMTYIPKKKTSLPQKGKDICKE

[2] = biological target: T2, Cysteinyl leukotriene receptor 1 (Cavia porcellus, UniProt Q2NNR5); experiment: Compound was tested for its inhibitory activity against specific binding of [3H]LTD4 to guinea pig lung membrane.; type: tissue-based
T2 sequence (Q2NNR5 whole entry): T1 sequence (whole entry)

[3] = biological target: T1, Cysteinyl leukotriene receptor 1 (Cavia porcellus); experiment: Compound was tested for its inhibitory activity against specific binding of [3H]LTD4 to guinea pig trachea.; type: tissue-based
[4] = tested on: Cavia porcellus; experiment: Inhibition of aerosol administered LTD4-induced airway obstruction after oral administration in guinea pig 2 hr after administration; type: functional
[5] = tested on: Cavia porcellus; experiment: Inhibition of aerosol administered LTD4-induced airway obstruction after oral administration in guinea pig 6 hr after administration; type: functional

Row | Structure (SMILES) | pKB [1] | Ki [2] | pKB [3] | Inhibition [4] | Inhibition [5]
1 | Clc1ccc2ccc(/C=C/c3ccc(CN4CCc5cccc(CCc6nnn[nH]6)c54)cc3)nc2c1 | 8.6 | 31.6 nM | – | – | –
2 | c1cc(CCc2nnn[nH]2)c2c(c1)CCN2Cc1ccc(OCc2ccc3ccccc3n2)cc1 | 8.3 | – | 7.9 | – | –
3 | Clc1ccc2ccc(COc3cccc(CN4CCc5cccc(CCc6nnn[nH]6)c54)c3)nc2c1 | 8.4 | – | 7.8 | – | –
4 | Clc1ccc2ccc(COc3ccc(Cn4ccc5cccc(CCc6nnn[nH]6)c54)cc3)nc2c1 | – | – | – | 16% | –
5 | Clc1ccc2ccc(/C=C/c3cccc(Cn4ccc5cccc(CCc6nnn[nH]6)c54)c3)nc2c1 | – | – | – | 69% | 21%
6 | Clc1ccc2ccc(COc3ccc(CN4CCc5cccc(CCc6nnn[nH]6)c54)cc3)nc2c1 | 8.5 | – | 7.6 | 51% | 81%

Continued, in another order:

Row | pKB [1] | Ki [2] | pKB [3] | Structure (SMILES) | Inhibition [4] | Inhibition [5]
7 | 8.6 | 5.01 nM | – | Clc1ccc2ccc(/C=C/c3cccc(CN4CCc5cccc(OCc6nn[nH]n6)c54)c3)nc2c1 | – | –
8 | 8.6 | – | 7 | Clc1ccc2ccc(/C=C/c3cccc(CN4CCc5cccc(CCc6nnn[nH]6)c54)c3)nc2c1 | 91% | 74%
9 | 8.6 | – | – | C(=C\c1ccc2ccccc2n1)/c1cccc(CN2CCc3cccc(CCc4nnn[nH]4)c32)c1 | – | –
